Source: patent US11667649B2, “Heteroaromatic macrocyclic ether chemotherapeutic agents” (Nuvalent, Inc., priority 2020, dated 2023)

Tested on: TPM3-NTRK1-wt IC50 / primary target (e.g. CD74-ROS1-wt) IC50, Ba/F3 cells
Experiment: Cell assay TRKA selectivity (TRKA potency divided by primary target potency)
Format: cell-based
Details: for TPM3-NTRK1-wt/CD74-ROS1-G2032R: TRKA selectivity ratio: TPM3-NTRK1-wt IC50 / CD74-ROS1-G2032R IC50, Ba/F3 cells; for TPM3-NTRK1-wt/CD74-ROS1-wt: TRKA selectivity ratio: TPM3-NTRK1-wt IC50 / CD74-ROS1-wt IC50, Ba/F3 cells; for TPM3-NTRK1-wt/EML4-ALK-L1196M-G1202R: TRKA selectivity ratio: TPM3-NTRK1-wt IC50 / EML4-ALK-L1196M-G1202R IC50, Ba/F3 cells; for TPM3-NTRK1-wt/EML4-ALK-wt: TRKA selectivity ratio: TPM3-NTRK1-wt IC50 / EML4-ALK-wt IC50, Ba/F3 cells
Summary of the method: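 Ratio of TRKA to primary-target cellular IC50 (e.g. TPM3-NTRK1-wt/CD74-ROS1-wt), grouped into bins A >30, B >10, C ≥1, D <1. Each IC50 came from engineered Ba/F3 fusion lines grown without IL-3, dosed for 72 h and read as CellTiter-Glo luminescence, with a four-parameter logistic fit.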

| SMILES | TPM3-NTRK1-wt/CD74-ROS1-G2032R | TPM3-NTRK1-wt/CD74-ROS1-wt | TPM3-NTRK1-wt/EML4-ALK-L1196M-G1202R | TPM3-NTRK1-wt/EML4-ALK-wt |
| --- | --- | --- | --- | --- |
| C[C@H]1Oc2cc(cnc2N)-c2c(cnn2C2CCC2)Cc2cnn(C)c2-c2ccc(F)cc21 [Example 5, (19R)-3-cyclobutyl-16-fluoro-11,19-dimethyl-20-oxa-3,4,10,11,23-pentaazapentacyclo[19.3.1.0^2,^6.0^8,^12.0^13,^18]pentacosa-1(24),2(6),4,8(12),9,13,15,17,21(25),22-decaen-22-amine] | A (bin A for very high selectivity, ratio>30-fold) | A (bin A for very high selectivity, ratio>30-fold) | A (bin A for very high selectivity, ratio>30-fold) | A (bin A for very high selectivity, ratio>30-fold) |
| CCn1nc(C#N)c2c1-c1cnc(N)c(c1)O[C@H](C)c1cc(F)ccc1-c1nn(C)cc1C2 [Example 156, (19R)-22-amino-3-ethyl-16-fluoro-10,19-dimethyl-20-oxa-3,4,10,11,23-pentaazapentacyclo[19.3.1.0^2,^6.0^8,^12.0^13,^18]pentacosa-1(24),2(6),4,8,11,13,15,17,21(25),22-decaene-5-carbonitrile] | – | – | C (bin C for moderate selectivity, ratio≥1) | – |
| C[C@H]1Oc2cc(cnc2N)-c2c(C#N)nn(C)c2Cc2csnc2-c2ccc(F)cc21 [Example 143, (19R)-22-amino-16-fluoro-5,19-dimethyl-20-oxa-10-thia-4,5,11,23-tetraazapentacyclo[19.3.1.0^2,^6.0^8,^12.0^13,^18]pentacosa-1(24),2(6),3,8,11,13,15,17,21(25),22-decaene-3-carbonitrile] | A (bin A for very high selectivity, ratio>30-fold) | A (bin A for very high selectivity, ratio>30-fold) | B (bin B for high selectivity, ratio>10-fold) | A (bin A for very high selectivity, ratio>30-fold) |
| CCn1ncc2c1-c1cnc(N)c(c1)O[C@H](C)c1cc(F)ccc1-c1ncc(OC)cc1C2 [Example 149, (20R)-3-ethyl-17-fluoro-10-methoxy-20-methyl-21-oxa-3,4,12,24-tetraazapentacyclo[20.3.1.0^2,^6.0^8,^13.0^14,^19]hexacosa-1(25),2(6),4,8(13),9,11,14,16,18,22(26),23-undecaen-23-amine] | B (bin B for high selectivity, ratio>10-fold) | A (bin A for very high selectivity, ratio>30-fold) | D (bin D for low selectivity, ratio<1) | B (bin B for high selectivity, ratio>10-fold) |
| C[C@H]1Oc2cc(cnc2N)-c2c(cnn2CC2(C)CC2)Cc2cn(C)nc2-c2ccc(F)cc21 [Example 159, (19R)-16-fluoro-10,19-dimethyl-3-[(1-methylcyclopropyl)methyl]-20-oxa-3,4,10,11,23-pentaazapentacyclo[19.3.1.0^2,^6.0^8,^12.0^13,^18]pentacosa-1(24),2(6),4,8,11,13,15,17,21(25),22-decaen-22-amine] | A (bin A for very high selectivity, ratio>30-fold) | A (bin A for very high selectivity, ratio>30-fold) | B (bin B for high selectivity, ratio>10-fold) | A (bin A for very high selectivity, ratio>30-fold) |
| CCn1nc(C)c2c1-c1cnc(N)c(c1)O[C@H](C)c1cc(F)ccc1-c1nn(C)cc1C2 [Example 81, (19R)-3-ethyl-16-fluoro-5,10,19-trimethyl-20-oxa-3,4,10,11,23-pentaazapentacyclo[19.3.1.0^2,^6.0^8,^12.0^13,^18]pentacosa-1(24),2(6),4,8,11,13,15,17,21(25),22-decaen-22-amine] | A (bin A for very high selectivity, ratio>30-fold) | A (bin A for very high selectivity, ratio>30-fold) | B (bin B for high selectivity, ratio>10-fold) | A (bin A for very high selectivity, ratio>30-fold) |
| CCn1ncc2c1-c1cnc(N)c(c1)O[C@H](C)c1cc(F)ccc1-n1nncc1C2 [Example 43, (19R)-3-ethyl-16-fluoro-19-methyl-20-oxa-3,4,10,11,12,23-hexaazapentacyclo[19.3.1.0^2,^6.0^8,^12.0^13,^18]pentacosa-1(24),2(6),4,8,10,13,15,17,21(25),22-decaen-22-amine] | A (bin A for very high selectivity, ratio>30-fold) | A (bin A for very high selectivity, ratio>30-fold) | C (bin C for moderate selectivity, ratio≥1) | B (bin B for high selectivity, ratio>10-fold) |
| C[C@H]1Oc2cc(cnc2N)-c2c(nn(C)c2C2CCC2)Cc2ccnn2-c2ccc(F)cc21 [Example 174, (19R)-3-cyclobutyl-16-fluoro-4,19-dimethyl-20-oxa-4,5,11,12,23-pentaazapentacyclo[19.3.1.0^2,^6.0^8,^12.0^13,^18]pentacosa-1(24),2,5,8,10,13,15,17,21(25),22-decaen-22-amine] | B (bin B for high selectivity, ratio>10-fold) | A (bin A for very high selectivity, ratio>30-fold) | C (bin C for moderate selectivity, ratio≥1) | A (bin A for very high selectivity, ratio>30-fold) |
| CCn1ncc2c1-c1ccc(F)cc1C(C)Oc1nc(cnc1N)-c1c(cnn1C)C2 (centres unmarked) [Example 165, 11-ethyl-16-fluoro-3,19-dimethyl-20-oxa-3,4,10,11,23,25-hexaazapentacyclo[19.3.1.0^2,^6.0^8,^12.0^13,^18]pentacosa-1(24),2(6),4,8(12),9,13,15,17,21(25),22-decaen-22-amine] | C (bin C for moderate selectivity, ratio≥1) | B (bin B for high selectivity, ratio>10-fold) | D (bin D for low selectivity, ratio<1) | C (bin C for moderate selectivity, ratio≥1) |
| CCn1ncc2c1-c1cnc(N)c(c1)OC(C)c1cc(F)ccc1-c1ccncc1C2 (centres unmarked) [Example 36, 3-ethyl-17-fluoro-20-methyl-21-oxa-3,4,10,24-tetraazapentacyclo[20.3.1.0^2,^6.0^8,^13.0^14,^19]hexacosa-1(25),2(6),4,8(13),9,11,14,16,18,22(26),23-undecaen-23-amine] | A (bin A for very high selectivity, ratio>30-fold) | A (bin A for very high selectivity, ratio>30-fold) | C (bin C for moderate selectivity, ratio≥1) | A (bin A for very high selectivity, ratio>30-fold) |
| CCn1cc2c(n1)-c1ccc(F)cc1[C@@H](C)Oc1cc(cnc1N)-c1c(cnn1CC1CC1)C2 [Example 140, (19R)-3-(cyclopropylmethyl)-10-ethyl-16-fluoro-19-methyl-20-oxa-3,4,10,11,23-pentaazapentacyclo[19.3.1.0^2,^6.0^8,^12.0^13,^18]pentacosa-1(24),2(6),4,8,11,13,15,17,21(25),22-decaen-22-amine] | A (bin A for very high selectivity, ratio>30-fold) | A (bin A for very high selectivity, ratio>30-fold) | A (bin A for very high selectivity, ratio>30-fold) | A (bin A for very high selectivity, ratio>30-fold) |
| CCc1nsc2c1-c1cnc(N)c(c1)O[C@H](C)c1cc(F)ccc1-c1nn(C)cc1C2 [Example 155, (19R)-3-ethyl-16-fluoro-10,19-dimethyl-20-oxa-5-thia-4,10,11,23-tetraazapentacyclo[19.3.1.0^2,^6.0^8,^12.0^13,^18]pentacosa-1(24),2(6),3,8,11,13,15,17,21(25),22-decaen-22-amine] | C (bin C for moderate selectivity, ratio≥1) | A (bin A for very high selectivity, ratio>30-fold) | D (bin D for low selectivity, ratio<1) | A (bin A for very high selectivity, ratio>30-fold) |
| Cc1nn(CC2CC2)c2c1Cc1cc(C(F)F)nn1-c1ccc(F)cc1COc1cc-2cnc1N [Example 136, 3-(cyclopropylmethyl)-10-(difluoromethyl)-16-fluoro-5-methyl-20-oxa-3,4,11,12,23-pentaazapentacyclo[19.3.1.0^2,^6.0^8,^12.0^13,^18]pentacosa-1(24),2(6),4,8,10,13,15,17,21(25),22-decaen-22-amine] | A (bin A for very high selectivity, ratio>30-fold) | A (bin A for very high selectivity, ratio>30-fold) | A (bin A for very high selectivity, ratio>30-fold) | A (bin A for very high selectivity, ratio>30-fold) |
| Nc1ncc2cc1OCc1cc(F)ccc1-n1nc(C(F)F)cc1Cc1cnn(CC3CC3)c1-2 [Example 138, 3-(cyclopropylmethyl)-10-(difluoromethyl)-16-fluoro-20-oxa-3,4,11,12,23-pentaazapentacyclo[19.3.1.0^2,^6.0^8,^12.0^13,^18]pentacosa-1(24),2(6),4,8,10,13,15,17,21(25),22-decaen-22-amine] | A (bin A for very high selectivity, ratio>30-fold) | A (bin A for very high selectivity, ratio>30-fold) | A (bin A for very high selectivity, ratio>30-fold) | A (bin A for very high selectivity, ratio>30-fold) |
